According to US6417386B2, “Cyanohydrazone derivatives” (Syngenta Crop Protection, Inc., priority 1996, dated 2002):

melting point	Compound
186 to 187 °C	N#C/C(=N\Nc1c(Cl)cc(C(F)(F)F)cc1Cl)c1ccc(C#N)cc1 [Compound 3.4, 4-{1-[(2,6-dichloro-4-trifluoromethylphenyl)hydrazono]-2-nitriloethyl}benzonitrile]
164 to 165 °C	N#C/C(=N\Nc1c(Cl)cc(C(F)(F)F)cc1Cl)c1ccc(Cl)cc1 [Compound 3.16, 4-{1-[(2,6-dichloro-4-trifluoromethylphenyl)hydrazono]-2-nitriloethyl}chlorobenzene]
